The values that follow come from article PMC5442318, “Hundreds of dual-stage antimalarial molecules discovered by a functional gametocyte screen” (Nature Communications, 2017).

As usually defined, the inhibition is the drop in the measured response relative to a control, in per cent.

Like-named read-outs stand apart in the source and are kept apart here.

The subject of experiment [1] is P. falciparum male gametocytes (exflagellation). Briefly: Exflagellation assay (male gametocytes). The class given is cell-based, Plasmodium falciparum. The arrangement: Exflagellation Inhibition %: concentration or dose not given beside the values. On the procedure:
Figure 5 Exflagellation inhibition by six TCAMS compounds. Stage V gametocyte cultures were exposed to 2 μM of TCMDC-141070 and 1 μM of the five remaining compounds for 48 h. The percentage inhibition was determined compared to DMSO-treated controls. Compounds were then progressed into SMFA to further determine the transmission blocking in mosquitoes. Each bar represents mean value of two (TCMDC-125345, TCMDC-141698, TCMDC-123767, TCMDC-141154) or three (TCMDC-141070, TCMDC-124559) independent replicates with s.d.
Exflagellation was measured as previously reported[24] with minor modifications. Using 5 ml of day-14 gametocyte cultures, parasites were incubated with the corresponding concentration for each compound in six-well plates at 37 °C (3% O2, 5% CO2 and 92% N2). After 48 h incubation, a 200 μl sample was spun down in a microfuge, the supernatant was carefully removed and the pellet resuspended in 15 μl of pre-warmed ookinete medium. Parasites were placed in Fast-Read disposable haemocytometer slides and, after 15 min at room temperature (22 °C), exflagellation centres per field were counted under × 10 objective.

Experiment [2] deals with P. falciparum stages IV–V gametocytes. Briefly: Gametocytocidal ATP-depletion assay (gametocyte ATP bioluminescence). The settings on record: Plasmodium falciparum, mean. The class given is cell-based, Plasmodium falciparum. The procedure, abridged:
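Purified stage IV–V gametocytes (12,500/well) incubated with compound for 48 h at 37 °C under 3% O2/5% CO2. ATP measured by BacTiter-Glo luminescence as a viability surrogate; hits tested at 2 μM single concentration.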

The subject of experiment [3] is P. falciparum asexual blood stages. The settings on record: ref 1 (Gamo, F. J. et al., Nature 465, 305-310, 2010), cited from earlier work; for IC50: TCAMS asexual blood stage data, read-out: Pf Asexual blood stages XC50; for Pf Asexual stages XC50: TCAMS data.
The subject of experiment [4] is P. falciparum stage V female gametocytes. Briefly: P. falciparum female gametocyte activation assay (Pf FGAA), 24 h or 48 h preincubation, Pfs25 expression readout. It counts as cell-based, Plasmodium falciparum NF54. The settings on record: for Biological profile: Pf FGAA with 48 h, 24 h or post-activation addition, active = IC50 below 2 μM; for IC50: Plasmodium falciparum; for Pf FGAA classification: SLOW / FAST / GAMETE from activity at 48h, 24h, 0h incubation. The procedure, abridged: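 Purified stage V gametocytes from P. falciparum NF54 gametocyte cultures were exposed to compounds for 24 h or 48 h at 37 °C under 3% O2/5% CO2, then activated by temperature drop plus xanthurenic acid. Activated females were stained with Cy3-anti-Pfs25 (0.5 μg ml^−1) for 24 h at 26 °C and counted by high-content imaging; pIC50 by nonlinear regression.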

The mark [5] stands for this setting: 48 h exposure, 2 μM TCMDC-141070, 1 μM other compounds, vs DMSO, mean of 2-3 replicates.
[6] abbreviates: stage V gametocytes, 48 h exposure, read-out: PfFGAA IC50.
[7] abbreviates: 24h incubation time, read-out: Pf FGAA IC50 (µM) 24h.

Turning to `CC1Cc2ccccc2N1S(=O)(=O)c1cccc(C(=O)Nc2nc(-c3ccccn3)cs2)c1` (stereo not drawn) [TCMDC-124559], the “Inhibition of exflagellation (%)” value in experiment [1] (setting [5]) came out at 30%. In addition, the “Exflagellation Inhibition %” value in experiment [1] (Expt 1) came out at 28%; in experiment [1] (Expt 2), 0%; in experiment [1] (Expt 3), 60%. In addition, in experiment [2], the inhibition at 2 µM is 8.95%. Moreover, the IC50 is 1.32 µM in experiment [3]; 0.34 µM in experiment [4] (P. falciparum female gametocytes, mean, read-out: Gametocytes mean Pf FGAA IC50); 0.5 µM in experiment [4] (setting [6]). Also, in experiment [3], the “Pf Asexual stages XC50” value is recorded as 1.32 µM. In experiment [4], the Biological profile entry was “Fast-acting”. The “Pf FGAA classification” value in experiment [4] is on record as “FAST”.
For the compound `NCC1(c2nc(-c3ccc(Cl)c(O)c3)c(-c3ccncc3)[nH]2)CCCCC1` [TCMDC-141154], the “Inhibition of exflagellation (%)” value in experiment [1] (setting [5]) came out at 97%. The “Exflagellation Inhibition %” value in experiment [1] (Expt 1) and in experiment [1] (Expt 2) was 97% throughout. Also, the inhibition at 2 µM in experiment [2] is -10.5%. Moreover, the IC50 was 0.74 µM in experiment [3], 0.41 µM in experiment [4] (setting [7]) and 0.21 µM in experiment [4] (setting [6]). The “Pf Asexual stages XC50” value in experiment [3] was 0.53 µM. Besides, the Biological profile result in experiment [4] is recorded as “Gamete-targeting”. Also, the “Pf FGAA classification” value in experiment [4] is recorded as “GAMETE”.
Regarding `FC(F)(F)c1cnc(Sc2nnc(-c3ccncc3)o2)c(Cl)c1` [TCMDC-123767], the “Inhibition of exflagellation (%)” value in experiment [1] (setting [5]) came to 88%. Besides, the “Exflagellation Inhibition %” value in experiment [1] (Expt 1) and in experiment [1] (Expt 2) was 88% throughout. Further, in experiment [2], the inhibition at 2 µM is -5.49%. In addition, the IC50 is 0.27 µM in experiment [3], over 20 µM in experiment [4] (setting [7]) and 0.16 µM in experiment [4] (setting [6]). Moreover, the “Pf Asexual stages XC50” value in experiment [3] is on record as 0.27 µM. Also, the Biological profile entry in experiment [4] was “Slow-acting”. Further, the “Pf FGAA classification” value in experiment [4] is given as “SLOW”.
`Cc1ccc(Cn2nc(Cl)c(N3CCNCC3)cc2=O)cc1NC(=O)Nc1ccc(-c2ccccc2)cc1` [TCMDC-141698]: in experiment [1] (setting [5]), the “Inhibition of exflagellation (%)” value amounted to 84%. Also, the “Exflagellation Inhibition %” value in experiment [1] (Expt 2) is on record as 87%. For the same compound, in experiment [2], the inhibition at 2 µM is -7.4%. Further, the IC50 in experiment [3] was 0.68 µM; in experiment [4] (setting [7]), 0.44 µM; in experiment [4] (48h incubation time, read-out: Pf FGAA IC50 (µM) 48h), 0.44 µM; in experiment [4] (mean, P. falciparum female gametocyte activation assay, read-out: Gametocytes mean Pf FGAA IC50), 0.44 µM; in experiment [4] (setting [6]), 0.44 µM. Besides, the “Pf Asexual stages XC50” value in experiment [3] was 0.67 µM. In addition, in experiment [4], the Biological profile entry was “Gamete-targeting”. Moreover, the “Pf FGAA classification” value in experiment [4] is listed as “GAMETE”.
Consider `CC(C)(CNC(=O)[C@H]1CCCCN1)c1nc(-c2ccc(Cl)c(O)c2)c(-c2ccncc2)[nH]1` [TCMDC-141070], for which the “Exflagellation Inhibition %” value in experiment [1] (Expt 1) is listed as 75%. For the same compound, the inhibition at 2 µM was 99% in experiment [1] (Plasmodium falciparum, 48 h exposure, 2 μM TCMDC-141070, 1 μM other compounds, vs DMSO, mean of 2-3 replicates) and -0.73% in experiment [2]. Further, the values for the IC50 in experiment [3], in experiment [4] (setting [7]) and in experiment [4] (setting [6]) were 0.73 µM, 1.68 µM and 0.53 µM, respectively. The “Pf Asexual stages XC50” value in experiment [3] was 0.73 µM. The Biological profile result in experiment [4] was “Gamete-targeting”. Further, in experiment [4], the “Pf FGAA classification” value is “GAMETE”.
For `COc1cc(OC)cc(C(=O)Nc2nc(-c3ccccn3)cs2)c1` [TCMDC-125345], the “Inhibition of exflagellation (%)” value in experiment [1] (setting [5]) is reported as 50%. In experiment [1] (Expt 1), the “Exflagellation Inhibition %” value was 47%. The inhibition at 2 µM in experiment [2] was found to be 39.5%. Also, in experiment [3], the IC50 is 0.56 µM and the “Pf Asexual stages XC50” value is 0.56 µM. Moreover, in experiment [4], the Biological profile entry was “Fast-acting” and the “Pf FGAA classification” value is on record as “FAST”. In addition, the IC50 in experiment [4] (setting [7]) is 0.96 µM. For the same compound, the IC50 in experiment [4] (setting [6]) amounted to 0.36 µM.
